This note sets out measurements from US4822800A (Ortho Pharmaceutical Corporation, priority 1986, dated 1989).

SMILES strings stand for the structures. Counter-ions that a name gives are not always drawn. Like-named read-outs stand apart in the source and are kept apart here.

Experiment [1] has as its system adult mongrel dogs. In words: acute in vivo cardiotonic activity in anesthetized dogs. Conditions: Canis lupus familiaris, cardiotonic, relative to controls; for change in vivo at 1.875 mg/kg: dose 1.875 mg/kg intravenous; for change in vivo at 0.375 mg/kg: dose 0.375 mg/kg intravenous; for change in vivo at 0.125 mg/kg: dose 0.125 mg/kg intravenous; for change in vivo at 1.87 mg/kg: dose 1.87 mg/kg intravenous; for change in vivo at 3.75 mg/kg: dose 3.75 mg/kg intravenous; for change in vivo at 0.875 mg/kg: dose 0.875 mg/kg intravenous; for change in vivo at 8.75 mg/kg: dose 8.75 mg/kg intravenous. Also on record: species or system dog (adult mongrel). The method, then: The acute in vivo cardiotonic activity of compounds prepared according to the present invention was determined according to a modification of the procedure described by Alousi et al., Circ. Res., 45, 666 (1979).
In particular, adult mongrel dogs were anesthetized with sodium pentobarbital and were artificially respired. Arterial pressure was monitored via a femoral artery, and the pulse pressure was used to trigger a cardiotachometer for heart rate. Left ventricular pressure was determined with a Millar catheter, and dP/dt (the change in ventricular pressure with time) was derived. Cardiac output was determined by measuring ascending aortic blood flow with an electromagnetic flow probe, and myocardial contractile force was measured with a Walton Brodie strain gauge sutured to the right ventricle. Lead II EKG was also recorded.
A standard dose (10 μg/kg/min) of dopamine was administered to assess myocardial responsiveness.
Compounds of the invention were administered by intravenous infusion or bolus […] administration, and the effects on cardiovascular parameters were determined.
Dose related effects of the test compound on blood pressure (BP), heart rate (HR), maximum change in left ventricular pressure with time (dP/dt max),% change in cardiac force (CF) and the increase in mean arterial blood pressure relative to controls (MABP) were compared to pretreatment control values, expressed as a% change and rated for activity.

For experiment [2], the system named is adult mongrel dogs. The experiment can be described thus: renal vasodilating activity in anesthetized dogs. It is filed as in vivo, dog (adult mongrel). Conditions: Canis lupus familiaris, renal vasodilator, relative to controls; for change in vivo at 6.2 mg/kg: dose 6.2 mg/kg intravenous; for change in vivo at 0.2 mg/kg: dose 0.2 mg/kg intravenous; for change in vivo at 1.2 mg/kg: dose 1.2 mg/kg intravenous; for change in vivo at 13.9 mg/kg / change in vivo at up to 13.9 mg/kg: dose 13.9 mg/kg intravenous. The method, then: Goldberg et al, J. Pharmacol. Exp. Ther., 163, 188 (1968), performed an investigation of the structural requirements for dopamine-like renal vasodilation of phenethylamines and apomorphine. The following procedure is a variation of the assay described in that report.
Adult mongrel dogs were anesthetized and surgically prepared for electromagnetic measurement of renal artery blood flow. A carotid artery was cannulated for measuring arterial blood pressure, and drugs were administered intravenously. Heart rate was monitored with a cardiotachometer. Renal vascular resistance was calculated as the ratio of mean arterial blood pressure/renal artery blood flow. Dopamine was infused intravenously at 3 μg/kg/min for ten minutes (at an infusion rate of about 1 ml/min) to determine responsiveness of each dog to renal dopamine receptor stimulation. Cumulative dose-response data were obtained by infusing a compound of this invention at progressively increasing (usually three-fold) infusion rates, each dose being infused for five minutes. The maximum % increase from pre-drug control in renal artery blood flow (or a decrease in renal vascular resistance) was determined for each infusion dose.
RBF values are percent change in renal blood flow. RVR values are percent change in renal vascular resistance. MABP and HR are percent changes in mean arterial blood pressure and heart rate, respectively, relative to controls.

Where [3] appears, read: read-out: MABP (mean arterial blood pressure).
The mark [4] stands for this setting: read-out: dP/dt (maximum change left ventricular pressure with time).
Setting [5] is: read-out: RBF (renal blood flow).
The mark [6] stands for this setting: read-out: RVR (renal vascular resistance).

In the case of `COc1cc2c(C)nc(O)c(CC(C)C)c2cc1OC` [AJ], the change in vivo at 1.875 mg/kg was 39% in the experiment on adult mongrel dogs [1] (read-out: CF (cardiac force)), 10% in the experiment on adult mongrel dogs [1] (read-out: HR (heart rate)), -6% with adult mongrel dogs [1] (setting [3]) and 25% in the experiment on adult mongrel dogs [1] (setting [4]). For the same molecule, the change in vivo at 6.2 mg/kg in the experiment on adult mongrel dogs [2] (read-out: HR (heart rate)) was 2%; in the experiment with adult mongrel dogs [2] (setting [3]), 4%; in the experiment with adult mongrel dogs [2] (setting [5]) it was 9%; in the experiment with adult mongrel dogs [2] (setting [6]), -4%.

On to `CCOc1cc2c(C)nc(O)cc2cc1OC` [AK], for which the change in vivo at 0.375 mg/kg in the experiment on adult mongrel dogs [1] (read-out: CF (cardiac force)) is 114%; with adult mongrel dogs [1] (read-out: HR (heart rate)) it was 13%; in the experiment on adult mongrel dogs [1] (setting [3]) it was -5%; with adult mongrel dogs [1] (setting [4]) it was 39%. Further, the change in vivo at 0.2 mg/kg in the experiment on adult mongrel dogs [2] (read-out: HR (heart rate)) is 10%; with adult mongrel dogs [2] (setting [3]) it was -2%; in the experiment with adult mongrel dogs [2] (setting [5]), 10%; with adult mongrel dogs [2] (setting [6]), -11%.

`CCOc1cc2c(C)nc(O)c(CC)c2cc1OC` [AS]: the change in vivo at 0.125 mg/kg is 78% with adult mongrel dogs [1] (read-out: CF (cardiac force)), 8% in the experiment on adult mongrel dogs [1] (read-out: HR (heart rate)), -10% in the experiment on adult mongrel dogs [1] (setting [3]) and 49% in the experiment with adult mongrel dogs [1] (setting [4]). The change in vivo at 6.2 mg/kg with adult mongrel dogs [2] (read-out: HR (heart rate)) was 2%; in the experiment with adult mongrel dogs [2] (setting [3]) it was -1%; in the experiment with adult mongrel dogs [2] (setting [5]) it was 9%; in the experiment on adult mongrel dogs [2] (setting [6]), -11%.

With `COc1cc2c(C)nc(O)c(C(=O)NN)c2cc1OC` [AV], the change in vivo at 1.87 mg/kg was 89% with adult mongrel dogs [1] (read-out: CF (cardiac force)), 14% with adult mongrel dogs [1] (read-out: HR (heart rate)), -2% with adult mongrel dogs [1] (setting [3]) and 34% in the experiment with adult mongrel dogs [1] (setting [4]). The change in vivo at 1.2 mg/kg is 1% in the experiment on adult mongrel dogs [2] (read-out: HR (heart rate)), 5% in the experiment with adult mongrel dogs [2] (setting [3]), 22% in the experiment with adult mongrel dogs [2] (setting [5]) and -13% in the experiment on adult mongrel dogs [2] (setting [6]).

In the case of `COc1cc2c(C)nc(O)c(CCC(=O)O)c2cc1OC` [Compound E, 4-β-Carboxyethyl-3-hydroxy-6,7-dimethoxy-1-methylisoquinoline], the change in vivo at 1.875 mg/kg in the experiment with adult mongrel dogs [1] (read-out: CF (cardiac force)) is 75%; in the experiment on adult mongrel dogs [1] (read-out: HR (heart rate)), 5%; in the experiment with adult mongrel dogs [1] (setting [3]) it was -3%; with adult mongrel dogs [1] (setting [4]), 42%. For the same molecule, the results for the change in vivo at 13.9 mg/kg with adult mongrel dogs [2] (read-out: HR (heart rate)), with adult mongrel dogs [2] (setting [3]) and in the experiment with adult mongrel dogs [2] (setting [5]) were 11%, -7% and 7%, respectively. For the same molecule, in the experiment with adult mongrel dogs [2] (setting [6]), the change in vivo at up to 13.9 mg/kg was -13%.

As to `Cc1nc(O)c(CCC(=O)O)c2cc(O)c(O)cc12` [Compound G, 4-β-Carboxyethyl-3,6,7-trihydroxy-1-methyl-3-isoquinoline Hydrobromide], the change in vivo at 3.75 mg/kg in the experiment on adult mongrel dogs [1] (read-out: CF (cardiac force)) was 82%; with adult mongrel dogs [1] (read-out: HR (heart rate)), 13%; with adult mongrel dogs [1] (setting [3]), -10%; with adult mongrel dogs [1] (setting [4]) it was 32%. The figures for the change in vivo at 13.9 mg/kg in the experiment with adult mongrel dogs [2] (read-out: HR (heart rate)), with adult mongrel dogs [2] (setting [3]) and in the experiment on adult mongrel dogs [2] (setting [5]) were -3%, -5% and 11%, respectively. Also, the change in vivo at up to 13.9 mg/kg in the experiment on adult mongrel dogs [2] (setting [6]) was -14%.

As for `COC(=O)CCc1c(O)nc(C)c2c(OC)c(OC)c(OC)cc12` [Compound J, 4-carbomethoxyethyl-3-hydroxy-6,7,8-trimethoxy-1-methylisoquinoline], the change in vivo at 0.875 mg/kg was 22% in the experiment on adult mongrel dogs [1] (read-out: CF (cardiac force)), 8% with adult mongrel dogs [1] (read-out: HR (heart rate)), -4% in the experiment with adult mongrel dogs [1] (setting [3]) and 20% with adult mongrel dogs [1] (setting [4]). For the same molecule, the change in vivo at 13.9 mg/kg is -1% in the experiment with adult mongrel dogs [2] (setting [3]) and 18% in the experiment on adult mongrel dogs [2] (setting [5]). Moreover, the change in vivo at up to 13.9 mg/kg in the experiment on adult mongrel dogs [2] (setting [6]) is -23%.

Regarding `COC(=O)CCc1c(O)ncc2cc(OC)c(OC)cc12` [Compound Q, 4-(β-Carbomethoxyethyl)-3-hydroxy-6,7-dimethoxyisoquinoline], the change in vivo at 0.875 mg/kg in the experiment with adult mongrel dogs [1] (read-out: CF (cardiac force)) was 53%; in the experiment with adult mongrel dogs [1] (read-out: HR (heart rate)) it was 7%; in the experiment on adult mongrel dogs [1] (setting [3]), -4%; with adult mongrel dogs [1] (setting [4]), 24%. In the experiment on adult mongrel dogs [2] (setting [5]), the change in vivo at 13.9 mg/kg was determined as 42%. In the experiment with adult mongrel dogs [2] (setting [6]), the change in vivo at up to 13.9 mg/kg is -23%.

Regarding `COc1ccc2cc(O)ncc2c1OC` [D], the change in vivo at 8.75 mg/kg was 60% with adult mongrel dogs [1] (read-out: CF (cardiac force)), 13% in the experiment with adult mongrel dogs [1] (read-out: HR (heart rate)), -7% in the experiment with adult mongrel dogs [1] (setting [3]) and 34% in the experiment on adult mongrel dogs [1] (setting [4]). Moreover, the change in vivo at 13.9 mg/kg with adult mongrel dogs [2] (read-out: HR (heart rate)) is 3%; with adult mongrel dogs [2] (setting [3]), -11%; in the experiment on adult mongrel dogs [2] (setting [5]), 21%. In addition, in the experiment with adult mongrel dogs [2] (setting [6]), the change in vivo at up to 13.9 mg/kg is -27%.

Take `COc1cc2cc(O)nc(C)c2c(OC)c1OC` [H]: the change in vivo at 0.875 mg/kg in the experiment on adult mongrel dogs [1] (read-out: CF (cardiac force)) was 76%; in the experiment on adult mongrel dogs [1] (read-out: HR (heart rate)) it was 13%; in the experiment on adult mongrel dogs [1] (setting [3]), -2%; in the experiment on adult mongrel dogs [1] (setting [4]), 45%. Besides, the change in vivo at 13.9 mg/kg in the experiment on adult mongrel dogs [2] (read-out: HR (heart rate)) is 20%; with adult mongrel dogs [2] (setting [3]) it was -12%; with adult mongrel dogs [2] (setting [5]) it was 41%. Moreover, in the experiment on adult mongrel dogs [2] (setting [6]), the change in vivo at up to 13.9 mg/kg is -38%.

As for `CCc1nc(O)c(CCC(=O)OC)c2cc(OC)c(OC)cc12` [K], the change in vivo at 0.875 mg/kg was 47% with adult mongrel dogs [1] (read-out: CF (cardiac force)), 10% in the experiment on adult mongrel dogs [1] (read-out: HR (heart rate)), -3% in the experiment on adult mongrel dogs [1] (setting [3]) and 33% in the experiment on adult mongrel dogs [1] (setting [4]). Besides, the change in vivo at 13.9 mg/kg with adult mongrel dogs [2] (setting [5]) worked out at 28%. In addition, in the experiment with adult mongrel dogs [2] (setting [6]), the change in vivo at up to 13.9 mg/kg is -28%.
